According to patent US12030864B2, “Small molecule anticancer agents, combinations and uses thereof” (priority 2018, dated 2024):
Read-outs that look alike come from different tables or passages of the source.

Key:
[1] = system: MDA-MB-468 cells; assay: MTT cell viability assay; format: cell-based
Method: MTT cell viability was evaluated using MTT (3-(4,5-dimethylthiazol-2-yl)-2,5-diphenyltetrazolium bromide) assays carried out based on the manufacturer's instructions (kit CGD1, Sigma-Aldrich, St. Louis, MO).
Cell viability assays were performed in MDA-MB-468 (FIG. 8) and BT474 (FIG. 9) cell lines in the presence of increasing concentrations of tcyDTDO and/or TRAIL using the MTT method. The results were analyzed using the Chou-Talalay method [T. C. Chou, P. Talalay, Generalized equations for the analysis of inhibitions of Michaelis-Menten and higher-order kinetic systems with two or more mutually exclusive and nonexclusive inhibitors, Eur J Biochem, 115 (1981) 207-216; T. C. Chou, P. Talalay, Quantitative analysis of dose-effect relationships: the combined effects of multiple drugs or enzyme inhibitors, Adv Enzyme Regul, 22 (1984) 27-55.] to calculate combination indices (Cis) where CI<1 denotes synergy, CI=1 denotes additivity, and C I>1 denotes antagonism.
(§1) Cell viability (FIG. 12), proliferation (FIG. 13), and protein synthesis (FIG. 14) assays were performed in MDA-MB-468 cell line in the presence of increasing concentrations of tcyDTDO or DMtcyDTDO.

[2] = system: EGFR, DR4, and DR5 in MDA-MB-468 breast cancer cells; assay: Immunoblot of cell extracts prepared under non-reducing conditions; format: cell-based; conditions: 24 h, FIG. 16
Method: MDA-MB-468 breast cancer cells were treated for 24 h with the indicated concentrations of DMtcyDTDO and cells were analyzed by immunoblot. Cell extracts were prepared under non-reducing conditions in the presence of 100 mM N-ethylmaleimide to preserve disulfide bonding patterns (FIG. 16). […] The oligomerized forms of DR4 and DR5 represent the activated form of these receptors.

[3] = system: MDA-MB-468 cell line; assay: Cell proliferation assay; format: cell-based; conditions: 24 treatment, FIG. 13
Method: as §1

[4] = system: MDA-MB-468 cells; assay: Immunoblot assays; format: cell-based; conditions: for PARP cleavage: MDA-MB-468, single agent, FIG. 15; for responsiveness of the cell line to treatment: MDA-MB-468 TNBC line
[5] = system: MDA-MB-468 cells; assay: Protein synthesis assay; format: cell-based
Method: FIG. 11. depicts the inhibition of global protein synthesis upon treatment of MDA-MB-468 cells with tcyDTDO.
as §1
(§2) Thus, without being bound by any particular theory, it is speculated that compounds of Formula (I)-(VI) regulate DR5 steady-state protein levels in addition to the observed transcriptional induction.

[6] = system: DR5Long in MDA-MB-468 cell line; format: cell-based
From the text: A MDA-MB-468 cell line was engineered to stably express the long form of DR5 (DR5Long) in a tetracycline-inducible manner in order to separate DR5A effects on DR5 protein stability from transcriptional activation.

[7] = system: protein thiolates of MDA-MB-468 cell lysates; assay: Protein thiolate reactivity assay (BGPD labeling of cell lysates); format: biochemical; conditions: MDA-MB-468 cell lysates treated with compound in molar excess, then BGPD; FIG. 2
Method: To assess tcyDTDO reactivity with protein thiolates, MDA-MB-468 cell lysates were treated with various compounds in sufficient molar excess to block all protein thiolates. A non-selective thiol-reactive biotinylated analog (BGPD, FIG. 2) was then added to quantify free thiolates remaining after the pre-labeling.

[8] = system: DR5 in MDA-MB-468 cells; assay: DR5 oligomerization immunoblot; format: cell-based; conditions: FIGS. 6 and 7
From the text: Oligomerization of DR5 was also investigated in MDA-MB-468 cells as shown in FIG. 6 and FIG. 7, which is a magnification of the DR5Long/DR5Short portion of the immunoblot in FIG. 6.

[9] = system: DR5 transcription in HEK293 cells; assay: DR5 transcriptional reporter construct; format: cell-based; conditions: 5 μM; FIG. 10
From the text: FIG. 10. depicts increases in DR5 transcription by tcyDTDO in HEK293 cells as measured using a transcriptional reporter construct.
as §2

[10] = system: BT474 cells; assay: Immunoblot assays; format: cell-based; conditions: BT474 cancer line

## CO[C@H]1C[C@@H]2CS(=O)(=O)SC[C@H]2C[C@@H]1OC (racemic) [DMtcyDTDO, (4aS,6S,7S,8aS)- and (4aR,6R,7R,8aR)-6,7-Dimethoxyoctahydrobenzo[d][1,2]dithiine 2,2-dioxide]
[1]; MDA-MB-468, 24 treatment, FIG. 12
  effect on cell viability compared to equal doses of tcyDTDO: significantly greater effect
[2]; 100 mM N-ethylmaleimide
  oligomerization of EGFR, DR4, and DR5: induces oligomerization of EGFR, DR4, and DR5
[2]
  DR5 level: upregulates DR5
[3]
  effect on proliferation compared to equal doses of tcyDTDO: significantly greater effect
[4]
  PARP cleavage: induce PARP cleavage
  responsiveness of the cell line to treatment: highly responsive
[5]; 24 treatment, FIG. 14
  effect on protein synthesis compared to equal doses of tcyDTDO: significantly greater effect

## O[C@H](CS)[C@H](O)CS (racemic) [Dithiothreitol (DTT), Dithiothreitol]
[6]; reducing conditions, FIG. 5
  doxycycline-mediated increase in DR5Long: did not mimic the effects of tcyDTDO

## CCN1C(=O)C=CC1=O [N-ethylmaleimide (NEM), N-ethylmaleimide, reference compound]
[7]
  BGPD labeling of free thiolates remaining after pre-labeling: prevented BGPD labeling

## CC(C)[C@H](NC(=O)c1ccc2ccccc2n1)C(=O)N[C@@H](CC(=O)O)C(=O)COc1c(F)cccc1F [Q-VD-OPH, reference compound]
[4]; MDA-MB-468 cells
  effect on tcyDTDO/TRAIL downregulation of EGFR, Akt, phospho-Akt, PDK1: partially reverses
[4]; caspase inhibitor added
  effect on tcyDTDO-mediated upregulation of DR5 or the ER stress response: does not alter
[4]; caspase inhibitor added, FIGS. 3, 4
  effect on PARP cleavage induced by tcyDTDO/TRAIL: blocked

## C/C=C(/C)C(=O)O[C@H]1C(C)=C2[C@H]([C@@H]1OC(=O)CCCCCCC)[C@@](C)(OC(C)=O)C[C@H](OC(=O)CCC)[C@@]1(O)[C@H]2OC(=O)[C@@]1(C)O [Thapsigargin]
[6]; reducing conditions, FIG. 5
  doxycycline-mediated increase in DR5Long: did not mimic the effects of tcyDTDO

## O=S1(=O)CC2CCCCC2CS1 (stereo not shown) [tcyDTDO]
[1]; MTT, FIG. 1, compared with the other compounds profiled
  potency in reducing cancer cell viability: most potent compound identified so far
[6]; reducing conditions, FIG. 5
  doxycycline-mediated increase in DR5Long: enhanced
[7]
  BGPD labeling of free thiolates remaining after pre-labeling: did not reduce BGPD labeling
[4]
  PARP cleavage: induce PARP cleavage
  responsiveness of the cell line to treatment: highly responsive
[4]; immunoblot
  DR5 expression: increased DR5 expression
[8]
  DR5 dimerization and oligomerization: increase in DR5 dimerization and oligomerization
[9]
  DR5 transcription: increased DR5 transcription
[5]; Homo sapiens, 5 μM, FIG. 11, read-out: inhibition of global protein synthesis
  inhibition at 5 µM: > 95%
[10]
  responsiveness of the cell line to treatment: highly responsive

## Cyclosporine A [Cyclosporine A (CsA)]
[6]
  doxycycline-mediated increase in DR5Long: did not mimic the effects of tcyDTDO

## Tunicamycin
[6]; reducing conditions, FIG. 5
  doxycycline-mediated increase in DR5Long: did not mimic the effects of tcyDTDO
